Literature values as cited in patent publication US4897502A, “Process for making solid polyhalotriaryl phosphate esters” (priority 1987, dated 1990).
Where two headings read alike, the source gives them in different places.

Tests used:
[1] = 0° C.

Row | Compound | Hansen Dispersion Component (Table I) | Hildebrand Solubility Parameter (Table I) | also measured
1 | CCC(C)O (centres unmarked) [Example 2-butanol, 2-butanol] | 14.5 SI | 22.7 SI | 
2 | amyl alcohol [amyl alcohol (pract.)] | 14.5 SI |  | 
3 | CCCCCCCO [Example 1-heptanol, 1-heptanol] | 15.1 SI |  | 
4 | CCCCC(O)CC (centres unmarked) [Example 3-heptanol, 3-heptanol] | 14.6 SI | 20.2 SI | 
5 | CC(C)O [Example 2-propanol, 2-propanol] |  |  | Hansen Dispersion Component (comparison liquids): 7.6
6 | CCCC(C)O (centres unmarked) [Example 2-pentanol, 2-pentanol] | 15.0 SI | 22.2 SI | 
7 | CCCCCC(C)O (centres unmarked) [Example 2-heptanol, 2-heptanol] | 14.6 SI |  | 
8 | CCCCCCO [Example 1-hexanol, 1-hexanol] | 15.0 SI |  | 
9 | CO [methanol] |  |  | Hansen Dispersion Component (comparison liquids): 7.4
10 | CCCCC(CC)CO (centres unmarked) [2-ethylhexanol] |  | 20.8 SI | 
11 | CCCCCCCCCCO [Example 1-decanol, 1-decanol] | 15.4 SI | 20.5 SI | 
12 | CCCCCCCCO [Example 1-octanol, 1-octanol] | 15.2 SI | 21.1 SI | 
13 | CCCCCO [Example 1-pentanol, 1-pentanol] | 14.4 SI |  | 
14 | [Cl-].[Cl-].[Mg+2] [magnesium chloride] |  |  | magnesium chloride dissolving in 100 g ethanol ([1]; 100 g ethanol): 3.61 g; magnesium chloride dissolving in 100 g methanol ([1]; 100 g methanol): 15.5 g
